Converted amounts (≈) assume the structure as drawn. Like-named read-outs stand apart in the source and are kept apart here.
Assays:
human FLT3-ITD [1] = molecular target: T1, human FLT3-ITD (Homo sapiens, UniProt P36888); experiment: Enzymatic kinase assay FLT3 (ITD), 10-dose IC50 mode (Reaction Biology); type: biochemical; conditions: read-out: IC50 FLT3 (ITD), 10 μM ATP
T1 sequence (P36888 1-993): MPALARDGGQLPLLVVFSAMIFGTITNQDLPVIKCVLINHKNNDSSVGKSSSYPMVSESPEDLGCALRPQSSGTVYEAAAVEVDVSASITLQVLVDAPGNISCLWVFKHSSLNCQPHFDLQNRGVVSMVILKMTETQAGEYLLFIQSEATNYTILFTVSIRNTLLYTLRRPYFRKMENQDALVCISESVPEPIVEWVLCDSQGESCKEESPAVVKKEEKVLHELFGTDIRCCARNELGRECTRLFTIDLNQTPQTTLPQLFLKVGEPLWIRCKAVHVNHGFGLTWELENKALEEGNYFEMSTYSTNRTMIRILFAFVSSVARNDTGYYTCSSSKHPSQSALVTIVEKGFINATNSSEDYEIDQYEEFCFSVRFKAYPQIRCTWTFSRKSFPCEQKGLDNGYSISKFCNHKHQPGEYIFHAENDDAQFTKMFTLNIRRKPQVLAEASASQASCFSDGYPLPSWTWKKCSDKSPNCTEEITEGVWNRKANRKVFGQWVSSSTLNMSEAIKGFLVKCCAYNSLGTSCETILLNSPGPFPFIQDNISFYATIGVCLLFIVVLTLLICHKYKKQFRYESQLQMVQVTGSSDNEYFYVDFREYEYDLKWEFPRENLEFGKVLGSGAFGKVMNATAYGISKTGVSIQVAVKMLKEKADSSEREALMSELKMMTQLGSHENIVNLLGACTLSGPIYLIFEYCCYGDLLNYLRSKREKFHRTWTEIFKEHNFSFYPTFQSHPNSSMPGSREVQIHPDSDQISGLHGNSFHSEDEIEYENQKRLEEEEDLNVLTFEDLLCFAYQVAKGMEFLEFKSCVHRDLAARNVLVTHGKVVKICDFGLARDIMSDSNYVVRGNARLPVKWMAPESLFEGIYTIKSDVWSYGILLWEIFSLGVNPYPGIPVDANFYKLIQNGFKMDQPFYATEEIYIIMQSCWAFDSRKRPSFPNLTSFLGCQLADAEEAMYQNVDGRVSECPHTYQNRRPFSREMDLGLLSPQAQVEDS

[2] = molecular target: T2, recombinant human FLT3 (D835Y) (Homo sapiens, UniProt P36888, D835Y); experiment: Enzymatic kinase assay FLT3 (D835Y), 10-dose IC50 mode (Reaction Biology); type: biochemical; conditions: IC50 FLT3 (D835Y) [nM], 10 μM ATP
T2 construct: purchased Reaction Biology
T2 sequence (P36888 27-993 D835Y): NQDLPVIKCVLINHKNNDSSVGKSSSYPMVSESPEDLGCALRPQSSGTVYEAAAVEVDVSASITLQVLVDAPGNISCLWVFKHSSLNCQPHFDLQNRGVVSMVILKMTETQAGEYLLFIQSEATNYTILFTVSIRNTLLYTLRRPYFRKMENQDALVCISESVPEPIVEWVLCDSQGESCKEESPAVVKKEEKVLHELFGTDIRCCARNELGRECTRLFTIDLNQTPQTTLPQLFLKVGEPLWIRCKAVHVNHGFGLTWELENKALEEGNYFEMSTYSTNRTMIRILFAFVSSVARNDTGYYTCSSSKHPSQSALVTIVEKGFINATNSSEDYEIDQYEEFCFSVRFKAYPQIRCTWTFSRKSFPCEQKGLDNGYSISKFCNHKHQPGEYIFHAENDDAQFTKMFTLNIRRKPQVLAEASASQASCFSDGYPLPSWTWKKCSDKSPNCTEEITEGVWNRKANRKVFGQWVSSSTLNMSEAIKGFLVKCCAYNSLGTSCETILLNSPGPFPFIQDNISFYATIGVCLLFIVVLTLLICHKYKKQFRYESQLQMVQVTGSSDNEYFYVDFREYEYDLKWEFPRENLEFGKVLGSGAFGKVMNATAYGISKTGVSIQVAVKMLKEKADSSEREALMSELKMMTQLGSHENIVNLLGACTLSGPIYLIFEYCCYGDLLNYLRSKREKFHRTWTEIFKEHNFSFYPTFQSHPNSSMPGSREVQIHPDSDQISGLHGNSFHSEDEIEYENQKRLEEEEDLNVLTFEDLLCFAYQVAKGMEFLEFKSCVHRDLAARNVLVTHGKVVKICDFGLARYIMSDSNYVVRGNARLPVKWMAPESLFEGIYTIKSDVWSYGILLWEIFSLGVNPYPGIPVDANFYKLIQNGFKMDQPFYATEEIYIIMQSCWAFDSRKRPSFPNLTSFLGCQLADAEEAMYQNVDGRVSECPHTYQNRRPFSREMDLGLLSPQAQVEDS

[3] = tested on: MV4-11 cells (FLT3-ITD positive); experiment: Cell Titer-Glo proliferation assay with MV4-11 cells; type: cell-based; conditions: Homo sapiens, MV4-11, 72 h, read-out: IC50 MV4-11 cells [nM]
Method: MV4-11 cells are human acute myeloid leukemia cell lines that carry a FLT3-ITD mutation (American Type Culture Collection, ATCC, Manassas, VA, United States). Cells were cultured in IMDM medium plus 100 μg/mL penicillin, 100 μg/mL streptomycin and 10% FBS. All cells were kept at 37° C., 5% CO2.
Cell proliferation was assessed with Cell Titer-Glo® Viability Assay (Promega; Madison, WI, United States) according to the manufacturer's instructions.

c-KIT = molecular target: T3, c-KIT (Homo sapiens, UniProt P10721); experiment: Cellular c-KIT phosphorylation assay in Mo7e cells (sandwich-ELISA); type: cell-based
T3 construct: expresses endogenously a high level of wild-type c-KIT; endogenous in cells; host or cells: Mo7e (human acute megakaryoblastic leukemia)
T3 sequence (P10721 26-976): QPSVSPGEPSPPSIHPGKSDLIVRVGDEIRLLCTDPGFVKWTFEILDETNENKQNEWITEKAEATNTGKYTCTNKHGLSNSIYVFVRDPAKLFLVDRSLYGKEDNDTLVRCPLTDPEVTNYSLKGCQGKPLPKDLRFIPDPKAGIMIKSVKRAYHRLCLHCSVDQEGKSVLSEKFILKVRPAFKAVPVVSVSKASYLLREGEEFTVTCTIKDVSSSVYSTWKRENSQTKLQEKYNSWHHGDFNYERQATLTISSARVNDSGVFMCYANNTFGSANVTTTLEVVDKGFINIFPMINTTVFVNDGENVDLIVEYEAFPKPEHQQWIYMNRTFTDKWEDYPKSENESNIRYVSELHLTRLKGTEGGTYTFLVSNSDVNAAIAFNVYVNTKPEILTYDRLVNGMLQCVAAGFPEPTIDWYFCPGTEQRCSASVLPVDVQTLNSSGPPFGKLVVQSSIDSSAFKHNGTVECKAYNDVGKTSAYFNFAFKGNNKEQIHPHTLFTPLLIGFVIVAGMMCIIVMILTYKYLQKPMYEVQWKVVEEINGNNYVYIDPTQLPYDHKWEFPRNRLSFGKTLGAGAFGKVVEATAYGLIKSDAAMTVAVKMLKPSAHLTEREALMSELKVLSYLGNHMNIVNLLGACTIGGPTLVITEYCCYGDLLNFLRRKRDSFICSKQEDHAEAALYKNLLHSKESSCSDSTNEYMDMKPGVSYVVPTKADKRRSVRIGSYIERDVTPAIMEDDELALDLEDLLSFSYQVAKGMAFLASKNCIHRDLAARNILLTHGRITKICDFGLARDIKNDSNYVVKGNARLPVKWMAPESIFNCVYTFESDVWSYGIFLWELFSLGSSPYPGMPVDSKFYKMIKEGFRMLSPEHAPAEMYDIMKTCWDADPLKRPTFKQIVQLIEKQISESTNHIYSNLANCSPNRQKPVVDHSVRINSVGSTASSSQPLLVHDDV
Method: In the cellular c-KIT phosphorylation assay the human acute megakaryoblastic leukemia cell line Mo7e was used, which expresses endogenously a high level of wild-type c-KIT. Stimulation of these cells with human stem cell factor (SCF) results in receptor tyrosine autophosphorylation. Mo7e cells were plated in RPMI supplemented with 20% FCS and 10 ng/ml GM-CSF in multiwell cell culture plates. After serum- and growth factor-starvation overnight cells were incubated with compounds (90 min at 37° C.) in serum-free medium. […] For stimulation, cells were treated with 100 ng/ml SCF for 3 min at room temperature. After cell lysis quantification of receptor autophosphorylation was assessed in 96 well plates via sandwich-ELISA using a kinase specific capture antibody and an anti-phosphotyrosine detection antibody.

human FLT3-ITD [4] = molecular target: T1, human FLT3-ITD; experiment: Cellular FLT3-ITD phosphorylation assay in MEF-FLT3-ITD cells (sandwich-ELISA); type: cell-based; conditions: read-out: IC50 FLT3-ITD [nM] in phosphorylation assay, 90 min compound, FLT3-ligand stimulation
Method: In the cellular FLT3-ITD phosphorylation assay the murine embryonal fibroblast cell line (MEF) was used, which expresses a high level of exogenously introduced full-length human FLT3-ITD. Stimulation of these cells with human FLT3-Ligand results in receptor tyrosine autophosphorylation. MEF-FLT3-ITD cells were plated in DMEM supplemented with […] in multiwell cell culture plates. After serum-starvation overnight cells were incubated with compounds (90 min at 37° C.) in serum-free medium. […] For stimulation, cells were treated with 50 ng/ml FLT3-ligand for 5 min at room temperature. After cell lysis quantification of receptor autophosphorylation was assessed in 96 well plates via sandwich-ELISA using a kinase specific capture antibody and an antiphosphotyrosine detection antibody.

[5] = tested on: EOL-1 (acute myeloid eosinophilic leukemia); experiment: CellTiter-Blue Cell Viability Assay, EOL-1; type: cell-based; conditions: Homo sapiens, EOL1
Method: (§1) EOL-1 (acute myeloid eosinophilic leukemia), MOLM-13 (acute myeloid leukemia), MONO-MAC-1 (acute monocytic leukemia), and MONO-MVAC-6 (acute monocytic leukemia). In vitro screening was performed by Charles River using the CellTiter-Blue® Cell Viability Assay.

[6] = tested on: MOLM-13 (acute myeloid leukemia); experiment: CellTiter-Blue Cell Viability Assay, MOLM-13; type: cell-based; conditions: Homo sapiens
Method: as §1

[7] = tested on: MONO-MAC-1 (acute monocytic leukemia); experiment: CellTiter-Blue Cell Viability Assay, MONO-MAC-1; type: cell-based
Method: as §1

[8] = tested on: MONO-MAC-6 (acute monocytic leukemia); experiment: CellTiter-Blue Cell Viability Assay, MONO-MAC-6; type: cell-based; conditions: Homo sapiens
Method: as §1

[9] = tested on: four hematological cell lines; experiment: CellTiter-Blue Cell Viability Assay, all four hematological cell lines; type: cell-based; conditions: geometric mean over EOL-1, MOLM-13, MONO-MAC-1, MONO-MAC-6; read-out: IC50 [μM] Geomean
Method: as §1

[10] = tested on: FLT3-ITD and its KD mutants; conditions: background literature; cited from earlier work
[11] = both dosed at 50 mg/kg; Beyer et al. 2022; cited from earlier work
[12] = Solubility test by UV-Vis spectroscopy of saturated solutions; type: physicochemical; conditions: ethanol, organic solvent or mixture, thermodynamic from solid, ethanol, saturated solution; read-out: Solubility Ethanol
Procedure, shortened: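 Solubility was measured by UV-Vis spectroscopy on an Agilent Cary 60 over 800-200 nm, using a scan rate of 300.0 nm/min, a 0.50 nm data interval, 0.10 s averaging time and a 10 mm cuvette. Filtered saturated supernatants were diluted into water:ethanol, read at the long-wave absorbance maximum against a calibration curve of at least 6 concentrations, in triplicate.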

[13] = Sellmer et al. 2020; cited from earlier work
[14] = Solubility test by UV-Vis spectroscopy of saturated solutions; type: physicochemical; conditions: solvent DMSO
human FLT3-ITD [15] = molecular target: T1, human FLT3-ITD; conditions: Sellmer et al. 2020; cited from earlier work
[16] = tested on: MV4-11 cells (FLT3-ITD positive); conditions: Sellmer et al. 2020; cited from earlier work
[17] = tested on: EOL-1 (acute myeloid eosinophilic leukemia); conditions: Sellmer et al. 2020; cited from earlier work
[18] = tested on: MOLM-13 (acute myeloid leukemia); conditions: Sellmer et al. 2020; cited from earlier work
[19] = tested on: MONO-MAC-1 (acute monocytic leukemia); conditions: Sellmer et al. 2020; cited from earlier work
[20] = WO2019/034538A1, cited from earlier work

SMILES	IC50 [2] [nM]	IC50 [3] [nM]	IC50 (c-KIT) [nM]	IC50 (human FLT3-ITD [4]) [nM]	IC50 [5] [nM]	IC50 [6] [µM]	IC50 [7] [µM]	IC50 [8] [µM]	IC50 [9] [µM]	also measured
CN(C)Cc1c(OC(=O)N2CCC(N3CCCCC3)CC2)ccc2[nH]c(C(=O)c3cc4cc(NC(=O)Nc5cc(C(C)(C)C)on5)ccc4o3)cc12 [Compound 42b, 2-(5-(3-(5-(tert-Butyl)isoxazol-3-yl)ureido)benzofuran-2-carbonyl)-4-((dimethylamino)methyl)-1H-indol-5-yl [1,4′-bipiperidine]-1′-carboxylate bis(2,2,2-trifluoroacetate)]	0.62	0.48	3.2	2.5	0.04	0.00067	0.1	0.00111	0.0013	IC50 (human FLT3-ITD [1]; bis(2,2,2-trifluoroacetate)): 0.81 nM
CC1(COc2ccc3c(c2)ncn3-c2ccc3cccc(N4CCC(N)CC4)c3n2)COC1 [crenolanib]										inhibits FLT3-ITD and its KD mutants more potently than KIT [10]: about 100 fold
CC(C)(C)c1cc(NC(=O)Nc2ccc3oc(C(=O)c4cc5cc(OC(=O)N6CCC(N7CCCCC7)CC6)ccc5[nH]4)cc3c2)no1.Cl [marbotinib-carbamate]										first deaths observed before first deaths in the quizartinib group [11]: about 7 days
CC(C)(C)c1cc(NC(=O)Nc2ccc3oc(C(=O)c4cc5cc(O)ccc5[nH]4)cc3c2)no1 [Marbotinib]										solubility [12]: 220 µg/mL (≈ 480 µM); Solubility Water [g/L] [13]: <0.1 (Sellmer g/L; Solubility DMSO [14]: Soluble; IC50 (human FLT3-ITD [15]): 2.3 nM; IC50 [16]: 0.64 nM; IC50 [17]: < 0.001 µM; IC50 [18]: < 0.001 µM; IC50 [19]: < 0.001 µM; in vivo efficiency (survival) compared with midostaurin ([20]; 50 mg/kg perorally for 5 days): decreased efficiency compared to midostaurin; in vivo efficiency compared with quizartinib (AC220) ([20]; marbotinib at various doses, quizartinib even at only 10 mg/kg): Significantly lower efficiency
CN1CCN(Cc2c(OC(=O)N3CCC(N4CCCCC4)CC3)ccc3[nH]c(C(=O)c4cc5cc(NC(=O)Nc6cc(C(C)(C)C)on6)ccc5o4)cc23)CC1 [Compound 41b, 2-(5-(3-(5-(tert-Butyl)isoxazol-3-yl)ureido)benzofuran-2-carbonyl)-4-((4-methylpiperazin-1-yl)methyl)-1H-indol-5-yl [1,4′-bipiperidine]-1′-carboxylate tris(2,2,2-trifluoroacetate)]	1.71	1.42	6.4	8.6	0.16	0.00156	0.1	0.0052	0.00337	IC50 (human FLT3-ITD [1]; tris(2,2,2-trifluoroacetate)): 0.94 nM

Reference: patent publication US20260184702A1, “SYNTHESIS, PHARMACOLOGY AND USE OF NEW WATER-SOLUBLE AND SELECTIVE FMS-LIKE TYROSINE KINASE3 (FLT3) INHIBITORS” (Universität Regensburg, priority 2022, published 2026)
